Results reported in patent US6265402A, “Use of 2-phenylmorpholin-5-one derivatives” (Nikken Chemicals Co., Ltd., priority 1996, dated 2001).

How the values were obtained:
Type IV PDE = Type IV PDE inhibitory activity; assay type: biochemical; details: Type IV PDE partially purified from rat neutrophils; 3H-cAMP substrate, 30° C., 30 minutes
Protocol: Type I, III, IV, and V PDE isozymes were prepared to study the PDE inhibitory activities of and selectivities with the compound of the invention [Trends Pharmacol Sci., 12, 19-27 (1992)]. Type I PDE was purchased from Sigma Corp. Type III, IV, and V PDE isozymes were partially purified from platelets (Type III and V) or neutrophils (Type IV) collected from rats. Each enzyme source was homogenized in a buffer (pH 6.5) containing 20 mM bisTris, 2 mM EDTA (i.e., ethylenediamine tetraacetate), 0.1 mM PMSF (i.e., phenylmethylsulfonyl fluoride), 5 mM 2-mercaptoethanol, 0.001 mM pepstatin and 0.01 mM leupeptin and was centrifuged at 30000×G for 30 minutes to obtain a supernatant, which was applied to an ion exchange column (Q-sepharose First Flow, Pharmacia Corp.) and was eluted with 0 to 1M sodium acetate. Partially purified isozymes were identified by observing the effects by conventional inhibitors.
Each PDE isozyme and the test compound dissolved in DMSO (i.e., dimethyl sulfoxide) were added to 50 mM Tris-HCl buffer containing 5 mM magnesium chloride. ^3 H-cAMP (for type III and IV PDE) or ^3 H-cGMP (for type I and V PDE) were added as substrates and were reacted at 30° C. for 30 minutes. The reaction was terminated by placing the test tube in boiling water of 100° C. for 5 minutes. The nucleotides formed by PDE were broken down by 5'-nucleotidase to ^3 H-adenosine or 3H-guanosine. The unreacted substrate and reaction product were separated through an ion-exchange column (i.e., QAE sephadex, Pharmacia Corp.) The eluted ^3 H-nucleoside was measured for its radioactivity by a liquid scintillation counter. The inhibitory activities of the compound of the present invention are shown by the IC50 value (M). Further, the inhibitory activities of the test samples against Type I, III, and V are 1/10 or less than that against type IV.

[1] = tested on: antigen-induced bronchospasms; test: Inhibitory effect on Antigen-Induced Bronchospasm (Anti-Asthmatic action); assay type: in vivo; details: Cavia porcellus; Hartley male guinea pig sensitized with Ovalbumin; intravenous, 10 minutes before 0.2 mg/kg OA i.v.; Konzett-Roessler method; read-out: Action for suppressing antigen-induced bronchospasms ED50
Protocol: Inhibitory effect on Antigen-Induced Bronchospasm (Anti-Asthmatic action)
A Hartley male guinea pig was sensitized by intramuscular administration of 35 mg Ovalbumin (OA) on first day and fourth day. A tracheal canula was introduced in the guinea pig anesthetized with pentobarbital and artificial ventilation was performed 25 to 29 days after the first sensitization. The overflow of the ventilation was measured by the Konzett-Roessler method while 0.2 mg/kg OA were administered intravenously. The test compound was dissolved in polyethylene glycol 400 and intravenously administered 10 minutes before administration of the antigens.

rat neutrophils = test: Inhibitory action of super oxide anion release from rat neutrophils; assay type: cell-based; details: Neutrophil, stimulation with 0.3 μM calcium ionophore A23187, chemiluminescence, Lusigenin
Protocol: Inhibitory effects on activity of rat neutrophils
The release of super oxide anions was measured so as to study the inhibitory effects of the compound of the present invention on inflammatory leukocytes, that is, neutrophils.
Blood sample was collected from Wister rats anesthetized with ether. It was superposed on a blood cell separation solution (Polymorphoprep 1.113, made by Naicomed Farm), and the neutrophils were separated by centrifugation. The neutrophils were resuspended in a Hank's balanced salt solution at a concentration of 0.5×10^4 cells/ml 0.1 mM of Lusigenin and the test substance dissolved in DMSO were added to 2 ml of the cell-suspension. The chemiluminescence generated by stimulation of 0.3 μM calcium ionophore A23187 was measured by a chemiluminescence reader so as to evaluate the release of super oxide anions.

Row | Compound | IC50 (Type IV PDE) | IC50 (rat neutrophils) | ED50 [1]
1 | COc1ccc(C2CNC(=O)CO2)cc1OCC1CCCC1 (centres unmarked) [Compound No. 36, 2-(3-cyclopentylmethoxy-4-methoxyphenyl)morpholin-5-one] | 6.9 µM | – | 1 mg/kg
2 | COc1ccc(C2(C)CNC(=O)CO2)cc1OC (centres unmarked) [Compound No. 9, 2-(3,4-dimethoxyphenyl)-2-methylmorpholin-5-one] | 16 µM | 1.6 µM | –
3 | COc1ccc(C2CNC(=O)CO2)cc1OCC1(C)CC1 (centres unmarked) [Compound No. 35, 2-[3-[(1-methylcyclopropyl)methoxy]-4-methoxyphenyl]morpholin-5-one] | 1.3 µM | – | 6.22 mg/kg
4 | CCCCOc1cc(C2CNC(=O)CO2)ccc1OC (centres unmarked) [Compound No. 5, 2-(3-butoxy-4-methoxyphenyl)morpholin-5-one] | 12 µM | – | 3.6 mg/kg
5 | COc1ccc(C2CNC(=O)CO2)cc1OCC(C)C (centres unmarked) [Compound No. 39, 2-[3-(2-methylpropoxy)-4-methoxyphenyl]morpholin-5-one] | 7.8 µM | – | 8.04 mg/kg
6 | COc1ccc(C2CNC(=O)CO2)cc1OC (centres unmarked) [Compound No. 1, 2-(3,4-dimethoxyphenyl)morpholin-5-one] | 37 µM | 29 µM | –

Second part, led by results:

Row | IC50 (Type IV PDE) | IC50 (rat neutrophils) | Compound | ED50 [1]
7 | 0.13 µM | – | COc1ccc(C2(C)CNC(=O)CO2)cc1OC1Cc2ccccc2C1 (centres unmarked) [Compound No. 27, 2-[3-(2-indanyloxy)-4-methoxyphenyl]-2-methylmorpholin-5-one] | 7.99 mg/kg
8 | 2.5 µM | – | COc1ccc(C2CNC(=O)CO2)cc1OCC1CC1 (centres unmarked) [Compound No. 8, 2-(3-cyclopropylmethoxy-4-methoxyphenyl)morpholin-5-one] | 4.31 mg/kg
9 | 4.6 µM | – | COc1ccc(C2CNC(=O)CO2)cc1OCC1CCC1 (centres unmarked) [Compound No. 38, 2-(3-cyclobutylmethoxy-4-methoxyphenyl)morpholin-5-one] | 7.83 mg/kg
10 | 1.8 µM | 1.4 µM | COc1ccc(C2CN(Cc3ccc(Br)cc3)C(=O)CO2)cc1OC1CCCC1 (centres unmarked) [Compound No. 13, 4-(4-bromobenzyl)-2-(3-cyclopentyloxy-4-methoxyphenyl)morpholin-5-one] | –
11 | 1.5 µM | 5.8 µM | COc1ccc(C2CNC(=O)CO2)cc1OC1CCCC1 (centres unmarked) [Compound No. 2, 2-(3-cyclopentyloxy-4-methoxyphenyl)morpholin-5-one] | 0.48 mg/kg
